We go through two molecules from patent publication US12251445B2, “Gamma-hydroxybutyrate delivering compounds and processes for making and using them” (Zevra Therapeutics, Inc., priority 2022, dated 2025).

This data set in a line: Pharmacokinetics of GHB in plasma after oral gavage of GHB delivering compounds in rats. Conditions: vehicle water, mean conjugate/mean comparator.
Setting [1] is: molar equivalent of 100 mg/kg NaGHB.
Where [2] appears, read: dose equivalent to 80 mg/kg NaGHB.

Take `O=C1CCCO1` [GBL]: under setting [1], the “% AUC0-4 hr vs study comparator sodium oxybate” value is listed as 27% and the “% Cmax vs study comparator sodium oxybate” value is recorded as 70%.
On to `CCOC(=O)OCCCC(=O)O` [O-(ethoxycarbonyl)-GHB], for which, under setting [2], the “% AUC0-4 hr vs study comparator sodium oxybate” value was found to be 54% and the “% Cmax vs study comparator sodium oxybate” value amounted to 51%.
